Results reported in patent US20090192176A1, “1H-PYRAZOLO[3,4-D]PYRIMIDINE, PURINE, 7H-PURIN-8(9H)-ONE, 3H-[1,2,3]TRIAZOLO[4,5-D]PYRIMIDINE, AND THIENO[3,2-D]PYRIMIDINE COMPOUNDS, THEIR USE AS mTOR KINASE AND PI3 KINASE INHIBITORS, AND THEIR SYNTHESES” (Wyeth, priority 2008, published 2009).

Key:
Type in all cases: biochemical
Human mTOR = target: T1, Human mTOR (Homo sapiens, UniProt P42345); assay: mTOR kinase assay (DELFIA format, purified enzyme); conditions: His6-S6K substrate, read-out: TOR Kinase IC50
T1 construct: FLAG
Protocol: mTOR Kinase Assay Methods
Human mTOR assays (See Toral-Barza, et al. Biochem Biophys. Res. Commun. 2005 Jun. 24; 332(1):304-10) with purified enzyme are performed in 96-well plates by DELFIA format as follows. Enzymes are first diluted in kinase assay buffer (10 mM HEPES (pH 7.4), 50 mM NaCl, 50 mM β-glycerophosphate, 10 mM MnCl2, 0.5 mM DTT, 0.25 mM microcystin LR, and […]). To each well, 12 μL of the diluted enzyme is mixed briefly with 0.5 μL test inhibitor or control vehicle dimethylsulfoxide (DMSO). The kinase reaction is initiated by adding 12.5 μL kinase assay buffer containing ATP and His6-S6K to give a final reaction volume of 25 μL containing 800 ng/mL FLAG-TOR, […] and […]. The reaction plate is incubated for 2 hours (linear at 1-6 hours) at room temperature with gentle shaking and then terminated by adding 25 μL Stop buffer (20 mM HEPES (pH 7.4), 20 mM EDTA, 20 mM EGTA). The DELFIA detection of the phosphorylated (Thr-389) His6-S6K is performed at room temperature using a monoclonal anti-P(T389)-p70S6K antibody (1A5, Cell Signaling) labeled with Europium-N1-ITC (Eu) (10.4 Eu per antibody, PerkinElmer). The DELFIA Assay buffer and Enhancement solution can be purchased from PerkinElmer. 45 μL of the terminated kinase reaction mixture is transferred to a MaxiSorp plate (Nunc) containing 55 μL PBS. The His6-S6K is allowed to attach for 2 hours after which the wells are aspirated and washed once with PBS. 100 μL of DELFIA Assay buffer with 40 ng/mL Eu-P(T389)-S6K antibody is added. The antibody binding is continued for 1 hour with gentle agitation. The wells are then aspirated and washed 4 times with PBS containing 0.05% Tween-20 (PBST). 100 μL of DELFIA Enhancement solution is added to each well and the plates are read in a PerkinElmer Victor model plate reader. Data obtained is used to calculate enzymatic activity and enzyme inhibition by potential inhibitors.

PI3 Kinase α = PI3 Kinase α (Homo sapiens, UniProt P42336); assay: Fluorescence polarization assay for PI3K
Protocol: (§1) Fluorescence Polarization Assay for PI3K
(§2) This assay is used to determine the IC50 of compounds of the present invention as it identifies inhibitors of PI3 kinase by measuring inhibition.
(§3) Reaction Buffer: 20 mM HEPES, pH 7.5, 2 mM MgCl2, 0.05% CHAPS; and 0.01% BME (added fresh) Stop/Detection Buffer: 100 mM HEPES, pH 7.5, 4 mM EDTA, 0.05% CHAPS; ATP 20 mM in water; PIP2 (diC8, cat# P-4508) 1 mM in water (MW=856.5); GST-GRP 1.75 mg/mL or 1.4 mg/mL in 10% glycerol; Red detector (TAMRA) 2.5 μM; Plate: Nunc 384 well black polypropylene fluorescence plate.
(§4) The assay is run by placing 5 μL of diluted enzyme per well, then 5 μL of diluted compound (or 9.5 μL enzyme then 0.5 μL compound in DMSO) is added and mixed. Then, 10 μL substrate is added to start the reaction. The samples are incubated 30-60 minutes, then the reaction is stopped by adding 20 μL stop/detector mix. PI3K is diluted with reaction buffer (e.g., 5 μL or 7.5 μL PI3K into 620 μL reaction buffer), and 5 μL of diluted enzyme is used per well. 5 μL reaction buffer or drug diluted in buffer (e.g., 4 μL/100 so final DMSO is 1% in reaction) is added to each. Pipetting up and down mixes the samples. Alternatively, the enzyme can be diluted to 1215 μL. In this case 9.8 μL is added per well and 0.2 μL compound is added in DMSO. To prepare 1 mL of substrate solution, 955 μL reaction buffer, 40 μL PIP2, and 2.5 μL ATP are mixed. 10 μL of substrate is added to each well to start the reaction.
(§5) Stop/detector mix is prepared by mixing 4 μL Red detector and 1.6 μL or 2.0 μL GST-GRP with 1 mL Stop buffer, which results in 10 nM probe and 70 nM GST-GRP). 20 μL of the stop/detector mix is added to each well to stop the reaction. The plates are read after 30-90 minutes keeping the red probe solutions dark. For the zero time point, stop/detector mix is added to the enzyme just before adding substrate. For an extra control, stop/detector mix is added to buffer (no enzyme) and substrate or to just buffer (no substrate). […] The recommended reaction has 0.06 μL per 20 μL (0.015 μg/20 μL) or 0.01125 μg/15 μL or 0.75 μg/mL. Plates are read on machines with filters for Tamra. The units are mP with no enzyme controls reading app 190-220 mP units. Fully active enzyme reduces fluorescence polarization down to 70-100 mP after 30 minutes. An active compound raises the mP values halfway to control or to 120-150 mP units.

PI3 Kinase γ = PI3 Kinase γ (Homo sapiens, UniProt P48736); assay: Fluorescence polarization assay for PI3K
Protocol: as §1, §2, §3, §4, §5

Chain of PI3 Kinase γ (P48736 whole entry): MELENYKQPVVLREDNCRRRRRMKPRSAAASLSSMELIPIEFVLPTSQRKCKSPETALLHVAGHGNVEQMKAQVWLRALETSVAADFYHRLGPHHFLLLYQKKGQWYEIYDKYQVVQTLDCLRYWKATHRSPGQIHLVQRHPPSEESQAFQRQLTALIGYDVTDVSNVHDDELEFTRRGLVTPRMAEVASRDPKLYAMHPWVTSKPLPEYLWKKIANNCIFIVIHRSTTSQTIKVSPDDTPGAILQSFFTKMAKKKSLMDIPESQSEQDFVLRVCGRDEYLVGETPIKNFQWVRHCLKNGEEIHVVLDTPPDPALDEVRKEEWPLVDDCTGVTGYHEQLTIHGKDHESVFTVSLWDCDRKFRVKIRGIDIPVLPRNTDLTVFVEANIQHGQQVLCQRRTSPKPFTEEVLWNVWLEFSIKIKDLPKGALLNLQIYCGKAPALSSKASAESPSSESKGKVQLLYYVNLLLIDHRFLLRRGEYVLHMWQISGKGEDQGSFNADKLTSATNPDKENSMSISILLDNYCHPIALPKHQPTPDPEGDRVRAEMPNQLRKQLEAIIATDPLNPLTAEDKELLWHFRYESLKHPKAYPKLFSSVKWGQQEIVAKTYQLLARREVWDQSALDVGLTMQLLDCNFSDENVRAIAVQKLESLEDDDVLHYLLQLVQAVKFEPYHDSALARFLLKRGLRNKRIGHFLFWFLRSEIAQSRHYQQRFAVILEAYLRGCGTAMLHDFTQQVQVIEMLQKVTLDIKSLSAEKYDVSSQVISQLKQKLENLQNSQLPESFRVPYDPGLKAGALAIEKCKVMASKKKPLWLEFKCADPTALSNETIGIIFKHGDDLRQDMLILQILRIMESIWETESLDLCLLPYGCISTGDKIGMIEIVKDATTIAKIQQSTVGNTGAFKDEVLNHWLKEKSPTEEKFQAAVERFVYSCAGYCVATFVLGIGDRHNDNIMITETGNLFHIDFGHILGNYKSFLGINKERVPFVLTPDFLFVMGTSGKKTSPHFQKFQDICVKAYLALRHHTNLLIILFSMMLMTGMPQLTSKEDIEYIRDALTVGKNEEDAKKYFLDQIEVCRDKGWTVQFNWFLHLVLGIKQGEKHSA
Chain of PI3 Kinase α (P42336 whole entry): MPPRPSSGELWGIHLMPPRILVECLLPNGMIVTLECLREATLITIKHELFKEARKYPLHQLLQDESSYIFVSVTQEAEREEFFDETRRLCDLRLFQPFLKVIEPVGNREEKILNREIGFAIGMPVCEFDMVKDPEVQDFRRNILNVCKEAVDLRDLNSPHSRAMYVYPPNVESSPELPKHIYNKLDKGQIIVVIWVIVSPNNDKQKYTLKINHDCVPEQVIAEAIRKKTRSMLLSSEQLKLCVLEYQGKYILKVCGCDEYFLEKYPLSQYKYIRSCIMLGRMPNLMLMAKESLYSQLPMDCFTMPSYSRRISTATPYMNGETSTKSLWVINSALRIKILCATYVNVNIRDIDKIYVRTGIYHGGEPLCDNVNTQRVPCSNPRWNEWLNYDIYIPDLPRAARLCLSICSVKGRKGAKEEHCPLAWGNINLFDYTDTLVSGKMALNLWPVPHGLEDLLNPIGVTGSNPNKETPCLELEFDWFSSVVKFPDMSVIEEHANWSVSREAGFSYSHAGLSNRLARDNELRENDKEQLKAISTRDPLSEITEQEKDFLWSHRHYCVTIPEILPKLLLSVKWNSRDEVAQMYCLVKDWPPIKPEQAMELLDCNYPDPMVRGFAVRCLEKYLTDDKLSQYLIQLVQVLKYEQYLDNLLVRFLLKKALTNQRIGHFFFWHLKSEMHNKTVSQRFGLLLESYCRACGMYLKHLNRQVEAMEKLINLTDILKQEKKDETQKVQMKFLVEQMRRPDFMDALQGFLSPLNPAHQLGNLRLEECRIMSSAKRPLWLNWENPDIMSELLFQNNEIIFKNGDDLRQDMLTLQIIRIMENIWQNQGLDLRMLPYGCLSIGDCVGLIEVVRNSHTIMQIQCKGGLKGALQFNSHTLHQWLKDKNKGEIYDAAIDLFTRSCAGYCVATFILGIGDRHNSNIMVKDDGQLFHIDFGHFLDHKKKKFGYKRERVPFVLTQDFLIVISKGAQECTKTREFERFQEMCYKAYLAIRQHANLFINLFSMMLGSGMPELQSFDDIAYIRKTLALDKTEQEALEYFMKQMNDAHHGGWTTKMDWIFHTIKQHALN
Chain of PI3 Kinase α (P27986 whole entry partner): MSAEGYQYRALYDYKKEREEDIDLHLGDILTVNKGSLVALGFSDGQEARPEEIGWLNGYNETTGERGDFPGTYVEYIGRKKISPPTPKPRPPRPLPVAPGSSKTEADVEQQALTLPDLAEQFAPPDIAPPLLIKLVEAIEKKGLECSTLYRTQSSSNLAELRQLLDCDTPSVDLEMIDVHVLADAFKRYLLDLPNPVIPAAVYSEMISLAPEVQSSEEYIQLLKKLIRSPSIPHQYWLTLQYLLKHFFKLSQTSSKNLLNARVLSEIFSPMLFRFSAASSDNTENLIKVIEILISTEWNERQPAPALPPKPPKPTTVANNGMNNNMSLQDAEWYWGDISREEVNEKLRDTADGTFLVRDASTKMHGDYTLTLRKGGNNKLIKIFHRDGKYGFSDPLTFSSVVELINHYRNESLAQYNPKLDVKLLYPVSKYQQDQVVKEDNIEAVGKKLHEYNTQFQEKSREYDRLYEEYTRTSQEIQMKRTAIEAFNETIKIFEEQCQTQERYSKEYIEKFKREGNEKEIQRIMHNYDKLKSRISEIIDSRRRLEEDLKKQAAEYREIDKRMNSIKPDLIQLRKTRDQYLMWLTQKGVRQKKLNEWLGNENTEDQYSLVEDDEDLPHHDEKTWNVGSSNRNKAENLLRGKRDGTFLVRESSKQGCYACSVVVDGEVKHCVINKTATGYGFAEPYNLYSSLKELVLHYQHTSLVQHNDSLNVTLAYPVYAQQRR

| Compound | IC50 (Human mTOR) | IC50 (PI3 Kinase α) | IC50 (PI3 Kinase γ) |
| --- | --- | --- | --- |
| 5-[9-{1-[(5-bromopyridin-3-yl)methyl]piperidin-4-yl}-6-(3,6-dihydro-2H-pyran-4-yl)-9H-purin-2-yl]pyridin-3-ol [Compound 35] | 9.8 µM | 1.34 µM | 6.74 µM |
| 7,9-dibenzyl-6-(3,6-dihydro-2H-pyran-4-yl)-2-(3-hydroxyphenyl)-7,9-dihydro-8H-purin-8-one [Compound 66] | 14 µM | 2.43 µM | 1.61 µM |
| Oc1cccc(-c2nc(C3=CCOCC3)c3ncn(C4CCN(Cc5ccccc5)CC4)c3n2)c1 [Compound 12, 3-[9-(1-benzylpiperidin-4-yl)-6-(3,6-dihydro-2H-pyran-4-yl)-9H-purin-2-yl]phenol] | 1.8 µM | 1.77 µM | 5 µM |
| Oc1cccc(-c2nc(C3=CCOCC3)c3ncn(C4CCN(Cc5ccc(N6CCOCC6)nc5)CC4)c3n2)c1 [Compound 14, 3-[6-(3,6-dihydro-2H-pyran-4-yl)-9-{1-[(6-morpholin-4-ylpyridin-3-yl)methyl]piperidin-4-yl}-9H-purin-2-yl]phenol] | 0.86 µM | 1.49 µM | > 10 µM |
| CN1CCC(n2cnc3c(C4=CCOCC4)nc(-c4cccc(O)c4)nc32)CC1 [Compound 16, 3-[6-(3,6-dihydro-2H-pyran-4-yl)-9-(1-methylpiperidin-4-yl)-9H-purin-2-yl]phenol] | 2.3 µM | 1.63 µM | 3.2 µM |
| Cc1ccc(CN2CCC(n3cnc4c(C5=CCOCC5)nc(-c5cccc(O)c5)nc43)CC2)cc1 [Compound 18, 3-{6-(3,6-dihydro-2H-pyran-4-yl)-9-[1-(4-methylbenzyl)piperidin-4-yl]-9H-purin-2-yl}phenol] | 2.1 µM | 12 µM | 12 µM |
| Oc1cccc(-c2nc(C3=CCOCC3)c3ncn(C4CCN(Cc5ccc(Br)nc5)CC4)c3n2)c1 [Compound 19, 3-[9-{1-[(6-bromopyridin-3-yl)methyl]piperidin-4-yl}-6-(3,6-dihydro-2H-pyran-4-yl)-9H-purin-2-yl]phenol] | 0.69 µM | 5 µM | > 10 µM |
| Oc1cccc(-c2nc(C3=CCOCC3)c3ncn(C4CCN(Cc5ccc(F)c(F)c5)CC4)c3n2)c1 [Compound 20, 3-{9-[1-(3,4-difluorobenzyl)piperidin-4-yl]-6-(3,6-dihydro-2H-pyran-4-yl)-9H-purin-2-yl}phenol] | – | 7 µM | > 10 µM |
| OCc1cccc(-c2nc(C3=CCOCC3)c3ncn(C4CCN(Cc5cccnc5)CC4)c3n2)c1 [Compound 23, (3-{6-(3,6-dihydro-2H-pyran-4-yl)-9-[1-(pyridin-3-ylmethyl)piperidin-4-yl]-9H-purin-2-yl}phenyl)methanol] | 3.8 µM | 1.49 µM | 7.37 µM |
| OCc1cccc(-c2nc(C3=CCOCC3)c3ncn(C4CCN(Cc5ccccn5)CC4)c3n2)c1 [Compound 24, (3-{6-(3,6-dihydro-2H-pyran-4-yl)-9-[1-(pyridin-2-ylmethyl)piperidin-4-yl]-9H-purin-2-yl}phenyl)methanol] | 1.7 µM | 1.69 µM | 7.62 µM |
| O=C(Nc1ccc(-c2nc(C3=CCOCC3)c3ncn(C4CCNCC4)c3n2)cc1)NC1CCNCC1 [Compound 26, 1-{4-[6-(3,6-dihydro-2H-pyran-4-yl)-9-piperidin-4-yl-9H-purin-2-yl]phenyl}-3-piperidin-4-ylurea] | > 4 µM | 2.67 µM | 7 µM |
| O=C(Nc1ccc(-c2nc(C3=CCOCC3)c3ncn(C4CCN(Cc5ccc[nH]5)CC4)c3n2)cc1)NC1CCN(C(=O)OCc2ccccc2)CC1 [Compound 27, benzyl 4-{[(4-{6-(3,6-dihydro-2H-pyran-4-yl)-9-[1-(1H-pyrrol-2-ylmethyl)piperidin-4-yl]-9H-purin-2-yl}phenyl)carbamoyl]amino}piperidine-1-carboxylate] | > 4 µM | 3.03 µM | 1.08 µM |

These reach a lower IC50 (PI3 Kinase α). Values come first.

| IC50 (Human mTOR) | IC50 (PI3 Kinase α) | IC50 (PI3 Kinase γ) | Compound |
| --- | --- | --- | --- |
| 1.4 µM | 0.085 µM | 1.25 µM | Oc1cccc(-c2nc(C3=CCOCC3)c3nc[nH]c3n2)c1 [Compound 11, 3-[6-(3,6-dihydro-2H-pyran-4-yl)-9H-purin-2-yl]phenol] |
| 1.4 µM | 0.832 µM | 0.859 µM | Oc1cccc(-c2nc(C3=CCOCC3)c3ncn(C4CCN(Cc5ccco5)CC4)c3n2)c1 [Compound 13, 3-{6-(3,6-dihydro-2H-pyran-4-yl)-9-[1-(2-furylmethyl)piperidin-4-yl]-9H-purin-2-yl}phenol] |
| 1.4 µM | 0.28 µM | 0.736 µM | Oc1cccc(-c2nc(C3=CCOCC3)c3ncn(C4CCN(Cc5ccc[nH]5)CC4)c3n2)c1 [Compound 15, 3-{6-(3,6-dihydro-2H-pyran-4-yl)-9-[1-(1H-pyrrol-2-ylmethyl)piperidin-4-yl]-9H-purin-2-yl}phenol] |
| 1.2 µM | 1.06 µM | 2.58 µM | Oc1cccc(-c2nc(C3=CCOCC3)c3ncn(C4CCN(Cc5cnc[nH]5)CC4)c3n2)c1 [Compound 17, 3-{6-(3,6-dihydro-2H-pyran-4-yl)-9-[1-(1H-imidazol-5-ylmethyl)piperidin-4-yl]-9H-purin-2-yl}phenol] |
| 3.5 µM | 0.952 µM | 4.36 µM | OCc1cccc(-c2nc(C3=CCOCC3)c3ncn(C4CCN(Cc5ccccc5)CC4)c3n2)c1 [Compound 21, {3-[9-(1-benzylpiperidin-4-yl)-6-(3,6-dihydro-2H-pyran-4-yl)-9H-purin-2-yl]phenyl}methanol] |
| 1.9 µM | 1.05 µM | 5.41 µM | OCc1cccc(-c2nc(C3=CCOCC3)c3ncn(C4CCN(Cc5ccc(F)nc5)CC4)c3n2)c1 [Compound 22, {3-[6-(3,6-dihydro-2H-pyran-4-yl)-9-{1-[(6-fluoropyridin-3-yl)methyl]piperidin-4-yl}-9H-purin-2-yl]phenyl}methanol] |
| 0.89 µM | 0.228 µM | 1.34 µM | OCc1cccc(-c2nc(C3=CCOCC3)c3ncn(C4CCN(Cc5ccc(Br)nc5)CC4)c3n2)c1 [Compound 25, {3-[9-{1-[(6-bromopyridin-3-yl)methyl]piperidin-4-yl}-6-(3,6-dihydro-2H-pyran-4-yl)-9H-purin-2-yl]phenyl}methanol] |
| 3.6 µM | 0.384 µM | 2.4 µM | Oc1cncc(-c2nc(C3=CCOCC3)c3ncn(C4CCN(Cc5ccccc5)CC4)c3n2)c1 [Compound 28, 5-[9-(1-benzylpiperidin-4-yl)-6-(3,6-dihydro-2H-pyran-4-yl)-9H-purin-2-yl]pyridin-3-ol] |
